Reference: the NIST ThermoML archive (doi:10.1021/acs.jced.5b00941)
± gives the expanded uncertainty stated by the source.

Assay: mn = molality of the nth substance listed, in mol/kg
Conditions: 100 kPa, Liquid; for viscosity: Falling or rolling sphere viscometry; for mass density: Vibrating tube method

O=C(O[C@@H]1Cc2c(O)cc(O)cc2O[C@@H]1c1cc(O)c(O)c(O)c1)c1cc(O)c(O)c(O)c1 + O
Conditions	mass density, 288.15 K [kg/m3]	mass density, 293.15 K [kg/m3]	mass density, 298.15 K [kg/m3]	mass density, 303.15 K [kg/m3]	mass density, 308.15 K [kg/m3]	viscosity, 288.15 K [mPa·s]	viscosity, 293.15 K [mPa·s]	viscosity, 298.15 K [mPa·s]	viscosity, 303.15 K [mPa·s]	viscosity, 308.15 K [mPa·s]
m1 = 0.0099	1000.71 ± 1	999.804 ± 1	998.637 ± 1	997.228 ± 1	995.598 ± 1	1.148 ± 0.014	1.014 ± 0.013	0.906 ± 0.011	0.815 ± 0.01	0.739 ± 0.009
m1 = 0.02	1002.36 ± 1	1001.44 ± 1	1000.26 ± 1	998.831 ± 1	997.195 ± 1	1.158 ± 0.014	1.021 ± 0.013	0.911 ± 0.011	0.82 ± 0.01	0.744 ± 0.009
m1 = 0.0298	1003.97 ± 1	1003.04 ± 1	1001.83 ± 1	1000.39 ± 1	998.752 ± 1	1.171 ± 0.015	1.034 ± 0.013	0.92 ± 0.011	0.827 ± 0.01	0.75 ± 0.009
m1 = 0.0399	1005.63 ± 1	1004.68 ± 1	1003.47 ± 1	1002.01 ± 1	1000.36 ± 1	1.187 ± 0.015	1.049 ± 0.013	0.934 ± 0.012	0.838 ± 0.01	0.759 ± 0.009
m1 = 0.0499	1007.26 ± 1	1006.29 ± 1	1005.05 ± 1	1003.6 ± 1	1001.92 ± 1	1.203 ± 0.015	1.062 ± 0.013	0.945 ± 0.012	0.849 ± 0.011	0.769 ± 0.01
m1 = 0.0601	1008.94 ± 1	1007.93 ± 1	1006.69 ± 1	1005.22 ± 1	1003.53 ± 1	1.222 ± 0.015	1.079 ± 0.014	0.959 ± 0.012	0.86 ± 0.011	0.778 ± 0.01

[Cl-].[Li+] [lithium chloride] + O
Conditions	mass density, 288.15 K [kg/m3]	mass density, 293.15 K [kg/m3]	mass density, 298.15 K [kg/m3]	mass density, 303.15 K [kg/m3]	mass density, 308.15 K [kg/m3]	viscosity, 288.15 K [mPa·s]	viscosity, 293.15 K [mPa·s]	viscosity, 298.15 K [mPa·s]	viscosity, 303.15 K [mPa·s]	viscosity, 308.15 K [mPa·s]
m1 = 0.1	1001.51 ± 1	1000.58 ± 1	999.41 ± 1	998.003 ± 1	996.382 ± 1	1.146 ± 0.014	1.011 ± 0.012	0.898 ± 0.011	0.809 ± 0.01	0.735 ± 0.009
m1 = 0.2	1004 ± 1	1003.06 ± 1	1001.87 ± 1	1000.45 ± 1	998.848 ± 1	1.154 ± 0.014	1.019 ± 0.013	0.909 ± 0.011	0.818 ± 0.01	0.743 ± 0.009
m1 = 0.3	1006.34 ± 1	1005.37 ± 1	1004.17 ± 1	1002.75 ± 1	1001.13 ± 1	1.169 ± 0.014	1.033 ± 0.013	0.921 ± 0.011	0.83 ± 0.01	0.753 ± 0.009
m1 = 0.4	1008.37 ± 1	1007.4 ± 1	1006.19 ± 1	1004.76 ± 1	1003.15 ± 1	1.183 ± 0.015	1.045 ± 0.013	0.932 ± 0.012	0.84 ± 0.01	0.762 ± 0.009
m1 = 0.5	1011.06 ± 1	1010.07 ± 1	1008.81 ± 1	1007.35 ± 1	1005.79 ± 1	1.201 ± 0.015	1.061 ± 0.013	0.948 ± 0.012	0.853 ± 0.011	0.774 ± 0.01
